Data published in patent US20220153782A1, “COMPOUNDS, COMPOSITIONS AND METHODS FOR TREATING A NEUROLOGICAL CONDITION” (MEMORYPLUS LTD., priority 2019, published 2022).
Entries after “also recorded” stand apart in the source; their conditions may differ. Where a SMILES comes first, the peptide text is derived from it. [ ]: non-standard residue; d: D form. The star is where a group is joined. ξ: configuration not given here. Myristoyl = CCCCCCCCCCCCCC(=O)*; dThr(3ξ) = CC(O)[C@@H](N)C(=O)O; Lauroyl = CCCCCCCCCCCC(=O)*; ξIle = CC[C@H](C)C(N)C(=O)O

What was measured:
Plasma stability (human) = format: in vitro ADME; settings: for k / half-life: human plasma, one phase decay; for half-life: human, plasma
Description: (§1) N, 3 independent experiments.
(§2) Plasma stability. […] Based on the higher lipophilicity of myristoylated peptides, dodecanoyl peptides are expected to be less protein bound and a higher percentage of the peptide will be available for permeation across biological barriers such as the BBB (only free fraction is available for transport). Thus, Dodecanoyl-[…] is a likely candidate for further development.

[1] = Stability in simulated intestinal fluid; format: in vitro ADME; settings: one phase decay
Description: as §1
Simulated intestinal fluids. The first hurdle that a peptide faces upon oral delivery is the high salt and acidic environment of the stomach that can denature the therapeutic peptide as well as the action of pepsin. Enteric coating can overcome this first hurdle easily with currently available industrial processes. Thus, we assessed the stability of the lipidized peptides in simulated intestinal fluids from non-fasted animals i.e. soluble fraction of digestive enzymes present in the upper gastrointestinal (and the major absorptive site for peptides). This soluble fraction contains pancreatic proteases such as trypsin and chymotrypsin, carboxypeptidases and aminopeptidases able to hydrolyse peptides down to di- or tripeptides. […] However, permeability across the BBB needs to be taken into consideration.

Plasma stability (mouse) = format: in vitro ADME; settings: for half-life: mouse, plasma; for half-life / k: one phase decay
Description: as §1, §2

APP/PS1 mice = test: Contextual fear conditioning, APP/PS1 mice; format: in vivo, mouse
Protocol: Use of peptides in vivo with osmotic pumps. APP/PS1 (a mouse model of Alzheimer's disease) and WT mice were anesthetized with isofluorane, and i.c.v. delivery cannulas (brain alzet kit III) were implanted with a stereotaxic frame at the following coordinates according to the bregma: AP, −0.5 mm; ML, 1 mm; and DV, −2.2 mm. Osmotic minipumps (Alzet; model #1004) were filled with the peptides (Dodecanoyl-[…] (conjugate of peptide SEQ ID 2) or Dodecanoyl-[…] (conjugate of peptide SEQ ID 1), 10 μM peptide in 2 mM in cyclodextrin) or with vehicle (cyclodextrin), and equilibrated in 0.9% NaCl at 37° C. for 48 hr. They were attached to the i.c.v. cannula tubing and subcutaneously implanted at the back. After 21 days, behavioral testing was started. Animal manipulation and data analysis were carried out blind with respect to genotype and treatment.
Fear conditioning. In this test, mice form an association between a certain context (an experimental cage/tone) and an aversive event (a foot shock) that takes place in that context. […] Training and testing took place in a rodent observation cage (30×37×25 cm) that was placed in a sound attenuating chamber. In the training (conditioning), the mouse was exposed to the conditioning context (180 sec) followed by a tone (CS, 20 sec, 2 kHz, 85 dB). After termination of the tone, a foot shock (US, 0.75 mA, 2 sec) was delivered through a stainless-steel grid floor. Mice received three foot shocks with an intertrial interval of 60 s. The mouse was removed from the fear conditioning box 30 sec after shock termination and returned to their home cages. Testing: In the contextual fear conditioning version, mice were placed back into the original training context for 8 min, during which no foot shock was delivered. […] The animals' behavior was scored by an observer blind to the treatment conditions. Using a time-sampling procedure every 2 s, each mouse was scored blindly as either freezing or active at the instant the sample was taken. […]

[2] = Liver stability (liver homogenate); format: in vitro ADME, mouse; settings: for half-life: mouse, liver homogenate
Description: as §1
Liver stability (mouse). Clearance of peptide therapeutics is highly dependent on the high metabolism occurring by liver enzymes able to degrade within minutes the total dose of peptide reaching the bloodstream after intravenous, other parenteral and non-invasive (oral and nasal routes). Peptides with good plasma and liver stability are more likely to remain in circulation and thus elicit higher levels if peptide is brain permeable across the BBB via invasive and non-invasive routes.

in vitro = settings: human; for Papp at 200 μM: BBB permeability; for Papp: Papp0-4 h experiment 2
Protocol: (§3) The in vitro permeability across a human 2D blood-brain Transwell model (hCMEC/D3 and human astrocytes SC-1800) was tested and enabled the calculation of the apparent permeability coefficient (Papp) for all peptides.

[3] = tested on: in vitro 2D human BBB model (hCMEC/D3 and human astrocytes SC-1800); test: in vitro
Protocol: as §3

[4] = Brain stability (brain homogenate); format: in vitro ADME, mouse; settings: for brain stability (comparative): longer half-lives; for half-life: mouse, brain homogenate
Description: as §1

[5] = Physicochemical properties (water solubility)
[6] = Self-assembly (Thioflavin T, critical aggregate concentration) and TEM; format: physicochemical; settings: aqueous media, ThT
Description: Peptides were able to aggregate in aqueous media and interact with Thioflavin T (ThT). ThT can be immobilized in fibrils/aggregates resulting in an increase in fluorescence. Dodecanoyl-[…] and Myristoyl-[…] result in lower critical aggregate concentrations (CAC) that is ˜5-fold lower from their equivalent lipidized peptides with a threonine. […] CAC is ˜20-fold smaller for myristoylated peptides compared to dodecanoyl peptides. […] This conserved structure can explain the increased stability and likely the success in solubilizing/stabilizing the peptide aggregates in hydroxyl-b-propyl cyclodextrin.

[7] = tested on: in vitro 2D human BBB model (hCMEC/D3 and human astrocytes SC-1800); settings: brain permeable peptide, literature; cited from earlier work
[8] = liver, one phase decay, read-out: t1/2 (h)
[9] = liver, one phase decay, read-out: t1/2 (min)
[10] = brain, one phase decay, read-out: t1/2 (h)
[11] = brain, one phase decay, read-out: t1/2 (min)

Protocol for hCMEC/D3 cells: Cell metabolic activity was calculated in Human cerebral microvascular endothelial cells (hCMEC/D3) after exposure to the peptides at various concentrations for 4 or 24 hours (n=3, FIG. 7).
At the specified time points, the MTT solution (20 μL at 5 mg mL^−1 solution in PBS) were added to each well and cells were incubated for 4 hours at 37° C. Subsequently, DMSO (100 μL) was added to dissolve the formazan crystals and absorbance was measured at 570 and 690 nm using Multiskan Go microplate spectrophotometer and data were analysed using the SkanIt software (Thermo Scientific, Paisley, UK). Cell metabolic activity was calculated by subtracting the values at 690 nm from 570 nm to remove background, and dividing the values by the control to express as a percentage (%) of the control (0.5% DMSO):

| k (Plasma stability (human)) [h⁻¹] | half-life (Plasma stability (human); read-out: t1/2 (h)) [h] | half-life (Plasma stability (human); read-out: t1/2 (min)) [h] | k [1] [h⁻¹] | half-life ([1]; read-out: t1/2 (h)) [h] | half-life ([1]; read-out: t1/2 (min)) [h] | half-life (Plasma stability (mouse); read-out: t1/2 (h)) [h] | half-life (Plasma stability (mouse); read-out: t1/2 (min)) [h] | k (Plasma stability (mouse)) [h⁻¹] | k ([2]; liver, one phase decay) [h⁻¹] | half-life [2, 8] [h] | half-life [2, 9] [h] | Papp at 200 μM (in vitro) [×10⁻⁶ cm/s] | Papp (in vitro) [×10⁻⁶ cm/s] | BBB permeability [3] | brain stability (comparative) ([4]; brain (mouse)) | k ([4]; brain, one phase decay) [h⁻¹] | half-life [4, 10] [h] | half-life [4, 11] [h] | Molecule | Cell viability (hCMEC/D3 cells) | further results |
| --- | --- | --- | --- | --- | --- | --- | --- | --- | --- | --- | --- | --- | --- | --- | --- | --- | --- | --- | --- | --- | --- |
| 0.2102 | 3.3 | 3.3 | 0.2337 | 2.97 | 2.97 | 0.151 | 0.151 | 4.595 | 1.146 | 0.605 | 0.605 | > 3.77 | 5.57 ± 0.289 | good | more brain stable | 1.901 | 0.365 | 0.365 | CCCCCCCCCCCC(=O)N[C@@H](CCC(N)=O)C(=O)N[C@H](Cc1c[nH]cn1)C(=O)N[C@@H](CO)C(=O)N[C@H](CCC(N)=O)C(=O)NC(C(=O)N[C@@H](C(=O)N[C@@H](CCCCN)C(=O)N[C@@H](C(=O)O)C(C)C)C(C)O)[C@@H](C)CC (stereo partly shown) (Lauroyl-Q[dH]S[dQ][ξIle][dThr(3ξ)]K[dV]-OH) | +++++ | human plasma stability (Plasma stability (human)): good; cell viability (hCMEC/D3 cells): good; freezing behavior compared with the myristoyl peptide (APP/PS1 mice; FIG. 5): more than the myristoyl peptide; increase in freezing compared to myristoyl-QHSQITKV (APP/PS1 mice; fear conditioning test): 36%; contextual fear conditioning performance (freezing behavior) (APP/PS1 mice; i.c.v. infusion 3-4 weeks, vs vehicle, FIG. 4B): improved the performance; also recorded: enhance freezing behavior |
| 0.3116 | 2.22 | 2.22 | 0.1534 | 4.52 | 4.52 | 0.869 | 0.869 | 0.7972 | 0.5092 | 1.36 | 1.36 | < 3.77 | 2.63 ± 0.0786 | poor | more brain stable | 2.714 | 0.255 | 0.255 | CCCCCCCCCCCCCC(=O)N[C@@H](CCC(N)=O)C(=O)N[C@@H](Cc1c[nH]cn1)C(=O)N[C@@H](CO)C(=O)N[C@@H](CCC(N)=O)C(=O)N[C@H](C(=O)N[C@H](C(=O)N[C@@H](CCCCN)C(=O)N[C@H](C(=O)O)C(C)C)[C@@H](C)O)[C@@H](C)CC (Myristoyl-QHSQITKV-OH; C-terminus assumed) | + | water solubility (comparative with threonine analogue) [5]: higher water solubility; recovery of cells at 24 hours (hCMEC/D3 cells): did not recover; critical aggregate concentration (CAC), lower than equivalent lipidized peptide with a threonine [6]: ~5 fold; remaining at 2 h (Plasma stability (mouse); after 2 hours of incubation, read-out: peptide remaining): ~50%; stability in mouse plasma (comparative) (Plasma stability (mouse); longer half-lives): more plasma stable; half-life ([2]; liver (mouse), read-out: half-life (converted)): 1.4 h; half-life ([4]; brain (mouse), read-out: half-life (converted)): 0.26 h |
| 1.604 | 0.432 | 0.432 | 0.2490 | – | – | 0.112 | 0.112 | 6.172 | 0.03747 | 18.5 | 18.5 | 2.63 to 5.57 | 3.77 ± 0.386 | – | – | 4.204 | 0.165 | 0.165 | CCCCCCCCCCCCCC(=O)N[C@@H](CCC(N)=O)C(=O)N[C@@H](Cc1c[nH]cn1)C(=O)N[C@H](C(=O)N[C@@H](CCC(N)=O)C(=O)N[C@H](C(=O)N[C@H](C(=O)N[C@@H](CCCCN)C(=O)N[C@H](C(=O)O)C(C)C)[C@@H](C)O)[C@@H](C)CC)[C@@H](C)O (Myristoyl-QHTQITKV-OH; C-terminus assumed) | +++++ | physicochemical properties for successful development [5]: poor; k (fast) ([2]; liver, two phase decay, fast): 3.051 (fast), h^−1; k (slow) ([2]; liver, two phase decay, slow): 0.00046 h⁻¹; half-life ([2]; liver, two phase decay, fast, read-out: t1/2 (h) (fast) (converted)): 0.227 h; half-life ([2]; liver, two phase decay, fast, read-out: t1/2 (min) (fast)): 0.227 h; half-life ([2]; liver, two phase decay, slow, read-out: t1/2 (h) (slow) (converted)): 1510 h; half-life ([2]; liver, two phase decay, slow, read-out: t1/2 (min) (slow)): 1510 h |
| – | – | – | – | – | – | – | – | – | – | – | – | – | – | – | – | – | – | – | Angiopep-2 | – | Papp, previous reported value [7]: 8.69±1.53 ×10^−6 cm/s |
